# Calls of active or inactive are those of the source. How the calls were made is not given here.
# System: Broad 7084-01 inhibitor HTS, set 2
# Assay: single-concentration hits, screen 7084 set 2 (AID 977613);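 further: host cells are infected with parasite promastigotes that become internalized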
row,Structure (SMILES),active concentration
1,O=C(O)[C@H]1[C@H](CO)[C@H]2Cn3c(ccc(-c4ccc(F)cc4)c3=O)[C@@H]1N2CC1CCCCC1,> 10 µM (inactive)
2,CN1CCCCN2[C@H](C1)[C@H](c1ccc(-c3ccc(F)cc3)cc1)[C@@H]2CO,> 10 µM (inactive)
3,O=C(c1cccnc1)N1C[C@H]2[C@@H](c3ccccc31)[C@H](CO)N2C(=O)CN1CCOCC1,< 10 µM
4,N#C[C@@H]1[C@H](c2ccccc2C2=CCCCC2)[C@@H](CO)N1C(=O)C1CCOCC1,> 10 µM (inactive)
5,O=C(c1cccnc1)N1CC[C@@H]2[C@@H](CO)Nc3ccc(C4=CCCCC4)cc3[C@@H]21,> 10 µM (inactive)
6,O=C(CN1CCOCC1)N1CC2(C1)[C@@H](c1ccccc1)[C@@H](CO)N2Cc1ccc(F)cc1,> 10 µM (inactive)
7,COc1ccc2c3c(n(C)c2c1)[C@H](CO)N(C(=O)Nc1ccccc1F)CC31CN(C(=O)c2ccccc2F)C1,> 10 µM (inactive)
8,CN1c2ccc(C#Cc3cccnc3)cc2[C@H]2[C@H](CCN2C(=O)C2CCCCC2)[C@H]1CO,> 10 µM (inactive)
9,CCS(=O)(=O)Nc1ccc2c(c1)C(=O)N(C)[C@@H]1CC[C@H](CC(=O)NCCOC)O[C@H]1CO2,> 10 µM (inactive)
10,O=C(Nc1ccccc1F)N1CC(=O)N2[C@H](C1)[C@H](c1ccc(-c3cccnc3)cc1)[C@@H]2CO,> 10 µM (inactive)
11,Cc1cccc(S(=O)(=O)N2CC[C@@H]3[C@H](CO)Nc4ccc(C#Cc5ccccc5F)cc4[C@@H]32)c1,> 10 µM (inactive)
12,O=C(Nc1ccccc1)N1CC(=O)N2[C@H](C1)[C@H](c1ccc(C#CC3CCCCC3)cc1)[C@@H]2CO,> 10 µM (inactive)
13,O=C(NC1CCCC1)N1CCCCN2[C@H](CO)[C@H](c3ccc(-c4cccnc4)cc3)[C@H]2C1,> 10 µM (inactive)
14,Cc1ccccc1-c1ccc([C@H]2[C@H](CO)N3C(=O)CN(C(=O)Nc4cccc(F)c4)C[C@@H]23)cc1,> 10 µM (inactive)
15,CC=Cc1ccc2n(c1=O)C[C@@H]1[C@@H](CO)[C@H](C(=O)NC3CCC3)[C@H]2N1S(=O)(=O)c1cn(C)cn1 (mixture of isomers),> 10 µM (inactive)
16,O=C(c1cccc(F)c1)N1CCCCN2[C@@H](CO)[C@@H](c3ccc(C#CC4(O)CCCC4)cc3)[C@@H]2C1,> 10 µM (inactive)
17,CN(C)C(=O)C[C@H]1CC[C@H]2[C@@H](COC[C@H](O)CN2CC2CC2)O1,> 10 µM (inactive)
18,CN(C)CC(=O)N1CCCCN2[C@H](C1)[C@H](c1ccc(/C=C/c3ccccc3)cc1)[C@@H]2CO,> 10 µM (inactive)
19,O=C([C@H]1[C@H](CO)[C@H]2Cn3c(cccc3=O)[C@@H]1N2Cc1cocn1)N1CCCCC1,> 10 µM (inactive)
20,COc1ccc(NC(=O)N2CC(=O)N3[C@H](CO)[C@H](c4ccc(Br)cc4)[C@@H]3C2)cc1,> 10 µM (inactive)
21,O=C(C1CCCCC1)N1C[C@H]2[C@@H](c3ccccc31)[C@H](CO)N2C(=O)Cc1ccccn1,> 10 µM (inactive)
22,O=C(O)[C@H]1[C@H](CO)[C@H]2Cn3c(ccc(-c4ccccc4F)c3=O)[C@@H]1N2C(=O)c1cccnc1,> 10 µM (inactive)
23,CN1C(=O)c2cc(NC(=O)c3ccc(F)c(F)c3)ccc2OC[C@H]2O[C@@H](CC(=O)N[C@H]3CCN(Cc4ccccc4)C3)CC[C@@H]21,> 10 µM (inactive)
24,Cc1ccccc1S(=O)(=O)N1CCCCN2[C@H](C1)[C@H](c1ccc(C#CCN(C)C)cc1)[C@@H]2CO,> 10 µM (inactive)

row,Structure (SMILES),active concentration
1,CCCC#Cc1ccc([C@@H]2[C@@H](CO)N3C(=O)CN(S(=O)(=O)c4ccccc4C)C[C@H]23)cc1,> 10 µM (inactive)
2,O=C1CNC[C@H]2[C@H](c3ccc(C4=CCCC4)cc3)[C@H](CO)N12,> 10 µM (inactive)
3,CCCNC(=O)N1[C@H](C#N)[C@H](c2ccccc2-c2ccc(C)cc2)[C@@H]1CO,> 10 µM (inactive)
4,CCC(=O)N1C[C@H]2[C@@H](c3ccccc31)[C@H](CO)N2C(=O)CC,> 10 µM (inactive)
5,O=C(C1CCCCC1)N1C[C@@H]2[C@H](c3ccccc31)[C@H](CO)N2C(=O)Cc1ccccn1,> 10 µM (inactive)
6,N#C[C@@H]1[C@@H](c2ccccc2C2=CCCCC2)[C@@H](CO)N1S(=O)(=O)c1cccc(F)c1,> 10 µM (inactive)
7,O=C(C[C@@H]1CC[C@@H]2[C@H](COC[C@H](O)CN2CC2CC2)O1)NCc1ccc(Cl)cc1,> 10 µM (inactive)
8,COc1ccc2c3c([nH]c2c1)[C@H](CO)N(C(C)=O)CC31CN(Cc2ccccc2Cl)C1,> 10 µM (inactive)
9,COCC(=O)N1[C@@H](C#N)[C@@H](c2ccccc2-c2cccc(C)c2)[C@@H]1CO,> 10 µM (inactive)
10,O=C(Nc1cccc(F)c1)N1C[C@@H]2[C@H](c3ccccc31)[C@H](CO)N2C(=O)Cc1ccccn1,> 10 µM (inactive)
11,COc1cccc(NC(=O)N2CC(=O)N3[C@@H](CO)[C@H](c4ccc(C5=CCCCC5)cc4)[C@@H]3C2)c1,> 10 µM (inactive)
12,O=C(C[C@H]1CC[C@@H]2[C@H](COC[C@H](O)CN2CCc2ccccc2)O1)NCc1ccc(F)cc1,> 10 µM (inactive)
13,Cc1ccccc1-c1ccccc1[C@H]1[C@@H](C#N)N(C(=O)c2cccc(F)c2)[C@H]1CO,> 10 µM (inactive)
14,N#Cc1cccc(-c2ccc3c(c2)[C@@H]2[C@@H](CCN2S(=O)(=O)c2ccc(F)cc2)[C@H](CO)N3)c1,> 10 µM (inactive)
15,COc1ccc(NC(=O)N2CCCCN3[C@@H](CO)[C@H](c4ccc(-c5ccccc5F)cc4)[C@@H]3C2)cc1,> 10 µM (inactive)
16,CC(C)NC(=O)N1CC[C@@H]2[C@H]1c1cc(Br)ccc1N(C)[C@@H]2CO,> 10 µM (inactive)
17,COc1cccc(CN2CC3(C2)[C@H](c2ccccc2)[C@H](CO)N3C(=O)Cc2ccccc2)c1,> 10 µM (inactive)
18,N#C[C@H]1[C@H](c2ccccc2-c2ccccc2F)[C@@H](CO)N1C(=O)Cc1ccccc1,> 10 µM (inactive)
19,CN(C)C(=O)C[C@H]1CC[C@H]2[C@@H](COC[C@H](O)CN2CC2CCCC2)O1,> 10 µM (inactive)
20,COc1ccccc1CN1CC[C@@H]2[C@H](CO)Nc3ccc(C#Cc4ccccc4)cc3[C@@H]21,> 10 µM (inactive)
21,O=C(C[C@@H]1CC[C@H]2[C@@H](COC[C@H](O)CN2CCC(F)(F)F)O1)NCC1CC1,> 10 µM (inactive)
22,COc1ccc2c3c(n(C)c2c1)[C@H](CO)N(C(=O)Nc1ccc(F)cc1)CC31CN(C(=O)Cc2ccncc2)C1,> 10 µM (inactive)
23,CN1C[C@H]2[C@@H](c3ccccc31)[C@H](CO)N2Cc1ccccc1Cl,> 10 µM (inactive)
24,C[C@@H](O)C#Cc1ccc([C@@H]2[C@@H](CO)N3CCCCN(C(=O)c4ccc5c(c4)OCO5)C[C@H]23)cc1,> 10 µM (inactive)

row,Structure (SMILES),active concentration
1,COCCNC(=O)[C@H]1[C@H](CO)[C@H]2Cn3c(ccc(-c4cccc(F)c4)c3=O)[C@@H]1N2C(=O)NC(C)C,> 10 µM (inactive)
2,COc1cc(CN2CC3(CCN(S(=O)(=O)c4cn(C)cn4)CC3)c3c(n(C)c4cc(OC)ccc34)[C@H]2CO)cc(OC)c1,> 10 µM (inactive)
3,CCNC(=O)C[C@H]1CC[C@@H]2[C@H](COC[C@@H](O)CN2C(=O)C2CC2)O1,> 10 µM (inactive)
4,CC(C)NC(=O)N1CC2(C1)[C@H](c1ccccc1)[C@H](CO)N2Cc1cncnc1,< 10 µM
5,O=C(Cc1ccncc1)N1CC(=O)N2[C@H](CO)[C@H](c3ccc(Br)cc3)[C@@H]2C1,> 10 µM (inactive)
6,COc1ccccc1NC(=O)N1CC(=O)N2[C@H](CO)[C@@H](c3ccc(-c4cccc(C)c4)cc3)[C@@H]2C1,> 10 µM (inactive)
7,COCC#Cc1ccc([C@@H]2[C@@H](CO)N3C(=O)CN(C(=O)Nc4ccccc4F)C[C@H]23)cc1,> 10 µM (inactive)
8,CC(=O)N1CCCCN2[C@@H](CO)[C@H](c3ccc(-c4ccccc4)cc3)[C@@H]2C1,> 10 µM (inactive)
9,C/C=C/c1ccccc1[C@@H]1[C@@H](CO)N(C(=O)CN2CCOCC2)[C@H]1C#N,> 10 µM (inactive)
10,Cc1ccc(NC(=O)Nc2ccc3c(c2)C(=O)N(C)[C@@H]2CC[C@@H](CC(=O)NCC(F)(F)F)O[C@@H]2CO3)cc1,> 10 µM (inactive)
11,O=C(C1CCOCC1)N1C[C@H]2[C@@H](c3ccccc31)[C@@H](CO)N2C(=O)Cc1ccccc1,> 10 µM (inactive)
12,CN1C(=O)c2cc(NS(C)(=O)=O)ccc2OC[C@H]2O[C@@H](CC(=O)N3CCOCC3)CC[C@@H]21,> 10 µM (inactive)
13,O=C(NC1Cc2ccccc2C1)[C@H]1[C@H](CO)[C@H]2Cn3c(cccc3=O)[C@H]2N1C(=O)c1cnccn1,> 10 µM (inactive)
14,CN(C)C(=O)c1cccc(-c2ccc([C@H]3[C@H](CO)N4C(=O)CN(C(=O)C5CCC5)C[C@@H]34)cc2)c1,> 10 µM (inactive)
15,O=C(c1cccc(F)c1)N1CCCCN2[C@H](CO)[C@@H](c3ccc(C#CC4(O)CCCC4)cc3)[C@H]2C1,> 10 µM (inactive)
16,O=C(Nc1ccccc1)N1CC(=O)N2[C@H](CO)[C@@H](c3ccc(C#CC4CCCCC4)cc3)[C@@H]2C1,> 10 µM (inactive)
17,C/C=C/c1ccc([C@@H]2[C@H](CO)N3CCCCN(S(=O)(=O)c4ccc(OC)cc4)C[C@@H]23)cc1,> 10 µM (inactive)
18,COc1ccccc1-c1ccc2n(c1=O)C[C@H]1[C@H](CO)[C@@H](C(=O)N3CCOCC3)[C@@H]2N1CC1CC1,> 10 µM (inactive)
19,C/C=C/c1ccc([C@@H]2[C@H](CO)N(CC3CC3)C23CN(C(=O)c2ccc4c(c2)OCO4)C3)cc1,> 10 µM (inactive)
20,CN1CCN(C(=O)C[C@H]2CC[C@H]3[C@@H](COC[C@@H](O)CN3C(=O)C3CC3)O2)CC1,> 10 µM (inactive)
21,O=C(C[C@H]1CC[C@H]2[C@@H](COC[C@@H](O)CN2CC2CCOCC2)O1)NCC1CCCCC1,> 10 µM (inactive)
22,Cn1cnc(CCNC(=O)C[C@@H]2CC[C@@H]3[C@H](COC[C@@H](O)CN3C(=O)C3CC3)O2)c1,> 10 µM (inactive)
